Measured values taken from patent US6750240B2, “Methods of using bis-indolylquinones” (Sugen, Inc., priority 1997, dated 2004).

Columns and labels:
[1] = target: HIV-reverse transcriptase (Human immunodeficiency virus type 1 group M subtype B, UniProt P03366); conditions: cited from earlier work
[2] = system: human epidermoid carcinoma (A431, ATCC CRL 1555); test: In vivo tumor growth of A431 cells implanted into the hindflank of athymic mice; design: species or system Female athymic mice (BALB/c, nu/nu)
Experimental: The following example illustrates the use of the compounds of the invention in an in vivo model of tumor growth.
Female athymic mice (BALB/c, nu/nu) were obtained from Simonsen Laboratories (Gilroy, Calif.). All animals were maintained under clean-room conditions in Micro-isolator cages with Alpha-dri bedding. They received sterile rodent chow and water ad libitum. A cell line established from a human epidermoid carcinoma (A431, ATCC CRL 1555) was grown in DMEM with 10% FBS and 2 mM GLN. All cell culture media, glutamine, and fetal bovine serum were purchased from Gibco Life Technologies (Grand Island, N.Y.) unless otherwise specified. All cells were grown in a humid atmosphere of 90-95% air and 5-10% CO2 at 37° C. All cell lines were routinely subcultured twice a week and were negative for mycoplasma as determined by teh Mycotect method (Gibco). Cells were harvested at or near confluency with 0.05% Trypsin-EDTA and pelleted at 450×g for 10 min. Pellets were resuspended in sterile PBS or media (without FBS) to a particular concentration and the cells were implanted into the hindflank of the mice ([…] mice per group). Tumor growth was measured, over 3 to 6 weeks using venier calipers. Tumor volumes were calculated as a product of length×width×height unless otherwise indicated. P values were calculated using the Students' t-test. Compound 1 (from Example 1 and Table I) in 100 μL excipient (VPD:D5W, 1:1 (VPD−12% w/v polysorbate 80, 0.55% citric acid (anhydrous), 35% w/v polyenthlene glycol (MW=300 daltons) and 26.3% v/v 190 proof ethanol diluted 1:22 in 5% dextrose in water (D5W) was delivered by IP injection at different concentrations. Control animals received VPD:D5W alone. Animals were dosed daily on days 1-5 (high dose), days 1-9 (mid-dose) or throughout the study (low dose).
The results are shown below as a percent tumor reduction compared to controls.

Row | Structure (SMILES) | inhibition of HIV-reverse transcriptase [1] | % inhibition (percent tumor reduction compared to controls) ([2]; 2.5 mg/kg/day IP (low dose, dosed daily throughout the study), Day 7, A431 tumor) | % inhibition (percent tumor reduction compared to controls) ([2]; 2.5 mg/kg/day IP (low dose, dosed daily throughout the study), Day 18, A431 tumor) | % inhibition (percent tumor reduction compared to controls) ([2]; 5 mg/kg/day IP (mid-dose, days 1-9), Day 7, A431 tumor) | % inhibition (percent tumor reduction compared to controls) ([2]; 5 mg/kg/day IP (mid-dose, days 1-9), Day 18, A431 tumor) | % inhibition (percent tumor reduction compared to controls) ([2]; 7.5 mg/kg/day IP (high dose, days 1-5), Day 7, A431 tumor) | % inhibition (percent tumor reduction compared to controls) ([2]; 7.5 mg/kg/day IP (high dose, days 1-5), Day 18, A431 tumor) | tumor growth inhibition, dose dependence ([2]; IP, 2.5-7.5 mg/kg/day, A431 tumor in athymic mice) | tumor growth after cessation of treatment ([2]; after cessation of treatment with the compound)
1 | C=CC(C)(C)n1cc(C2=C(O)C(=O)C(c3cn(C(C)(C)C=C)c4ccccc34)=C(O)C2=O)c2ccccc21 [asterriquinone, 2,5-bis[N-(1″,1″-dimethyl-2″-propenyl)indol-3″-yl]-3,6-dihydroxy-1,4-benzoquinone] | strong inhibitors |  |  |  |  |  |  |  | 
2 | CC(C)CCc1[nH]c2ccccc2c1C1=C(O)C(=O)C(c2c(CCC(C)C)[nH]c3ccccc23)=C(O)C1=O [Compound 1, 2,5-Dihydroxy-3,6-di-[2-(3-methyl-n-butyl)indol-3-yl]-1,4-quinone] |  | 11% | 0% | 30% | 38% | 55% | 50% | inhibited tumor growth in a dose dependent manner | remained inhibited even after cessation of treatment
